Measurements reported in EP0238198A2, “Method of modifying the lipid structure function and expression of cell membranes and pharmaceutical compositions for use therein” (Habib, Nagy Adly, priority 1986, dated 1987).

Assays:
[1] = system: 833K (non-seminomatous testicular germ cell tumour); assay: tumour cell colony inhibition test (clonogenic assay); format: cell-based, human
Description: (§1) Cells from rat mammary carcinoma (Sp 22), primary rat fibroblasts (from alveolar tissue) and four rat hepatoma cell lines (D23, D261, D262A and D262B) were studied.
(§2) The human tumour cell lines were investigated as follows: 500 exponentially-growing RTl12 (transitional cell carcinoma of the bladder) cells or two hundred 833K (non-seminomatous testicuLar.germ cell tumour) cells were plated in 5 cm dishes in RPMI1640 medium supplemented with 5% foetal calf serum and 2 mM 1-glutamine. […] Following a further 14 days incubation colonies were fixed, stained and counted. Colony-forming efficiency of the treated cells was expressed as a proportion of that in the controls. The experiments were repeated three times to permit statistical analysis.

[2] = system: RT112 (transitional cell carcinoma of the bladder); assay: as above; format: cell-based, human
Description: as §1, §2

[3] = system: Primary rat fibroblasts (from alveolar tissue); assay: colony inhibition test (clonogenic assay); format: cell-based; conditions: for Mean no colonies ± SE: 5 days, medium control 55.0±4.6
Description: as §1
The method used for rat cells was as follows: 200 cells were plated per dish in 1 ml 'Eagles' methionine enriched medium (MEM) + 10% newborn calf serum (NBCS) in 30 mm culture dishes and incubated for four hours at 37°C. […] Dilutions containing 20 µg/ml, […], 200 ng/ml and 2 ng/ml were prepared, 1 ml of each dilution was added to four dishes of cells, the final concentration being half the concentration of the material added. […] To control dishes 1 ml of MEM + NBCS was added, or 1 ml of MEM + NBCS + 1% ethanol. The dishes were incubated for 5 days. Medium was then removed, and the cell colonies were rinsed with 0.9% W/V NaCl solution and fixed for 15 minutes with methanol. Cell colonies were stained with 1% aqueous crystal violet and the dishes were allowed to dry.

[4] = Homo sapiens, 833K, 336 h, read-out: Colony-forming ability (± standard error)
[5] = summary of Table 3, dose-related response
[6] = Homo sapiens, RT-112, 336 h, read-out: Colony-forming ability (± standard error)
[7] = Rattus norvegicus, Fibroblast, 120 h, read-out: % colony formation relative to medium control

SMILES: CCCCCCCCCCCCCCCCCC(=O)O [stearic acid, octadecanoic acid]
- activity at 1 µg/mL [1, 4]: 81.5%
- activity at 2 µg/mL [1, 4]: 70.4%
- activity at 4 µg/mL [1, 4]: 27.5%
- activity at 6 µg/mL [1, 4]: 0.9%
- activity at 8 µg/mL [1, 4]: 0%
- activity at 10 µg/mL [1, 4]: 0%
- inhibition of colony formation [1, 5]: inhibited colony formation
- activity at 1 µg/mL [2, 6]: 92%
- activity at 2 µg/mL [2, 6]: 86%
- activity at 4 µg/mL [2, 6]: 45%
- activity at 6 µg/mL [2, 6]: 4.6%
- activity at 8 µg/mL [2, 6]: 0.3%
- activity at 10 µg/mL [2, 6]: 0%
- inhibition of colony formation [2, 5]: inhibited colony formation
- activity at 0.001 µg/mL [3, 7]: 90%
- activity at 0.01 µg/mL [3, 7]: 108%
- activity at 0.1 µg/mL [3, 7]: 85.8%
- activity at 1 µg/mL [3, 7]: 88.2%
- activity at 10 µg/mL [3, 7]: 96.5%
- activity at 50 µg/mL [3, 7]: 86.4%
- Mean no colonies ± SE ([3]; stearic acid 1ng/ml): 49.5±9.5
- Mean no colonies ± SE ([3]; stearic acid 100 ng/ml): 47.2±9.4
- Mean no colonies ± SE ([3]; stearic acid 1µg/ml): 48.5±9.2
- Mean no colonies ± SE ([3]; stearic acid 10 µg/ml): 52.0±7.7
- Mean no colonies ± SE ([3]; stearic acid 50 µg/ml): 47.5±6.0
- inhibition of colony development ([3]; summary of Table 2): failed to inhibit
